# Positions of bridges follow the written chain, without caps; N, C: chain ends. Residues, ends and D or L forms follow the SMILES beside them.
# Tests used:
# [1] = system: human ASIC3 channels; settings: ref [18]; cited from earlier work
# Description: Peptide Ugr9-1 was originally identified as a negative modulator of human ASIC3 channels. […] Combining comparative analysis, molecular modeling techniques, and structural and functional studies, we generated two novel peptide variants derived from Ugr9-1 capable of modulating both ASIC3 and ASIC1a channels.
# [2] = target: T1, rat ASIC1a/3 heteromeric channels (Rattus norvegicus, UniProt O35240+P55926); experiment: Two-electrode voltage clamp, rat ASIC1a/3 heteromeric channels in X. laevis oocytes; assay type: cell-based
# T1 construct: expressed in transfected cells; host or cells: Xenopus laevis oocytes co-injected with ASIC1a and ASIC3 mRNA (1:5)
# T1 sequence (P55926 1-526): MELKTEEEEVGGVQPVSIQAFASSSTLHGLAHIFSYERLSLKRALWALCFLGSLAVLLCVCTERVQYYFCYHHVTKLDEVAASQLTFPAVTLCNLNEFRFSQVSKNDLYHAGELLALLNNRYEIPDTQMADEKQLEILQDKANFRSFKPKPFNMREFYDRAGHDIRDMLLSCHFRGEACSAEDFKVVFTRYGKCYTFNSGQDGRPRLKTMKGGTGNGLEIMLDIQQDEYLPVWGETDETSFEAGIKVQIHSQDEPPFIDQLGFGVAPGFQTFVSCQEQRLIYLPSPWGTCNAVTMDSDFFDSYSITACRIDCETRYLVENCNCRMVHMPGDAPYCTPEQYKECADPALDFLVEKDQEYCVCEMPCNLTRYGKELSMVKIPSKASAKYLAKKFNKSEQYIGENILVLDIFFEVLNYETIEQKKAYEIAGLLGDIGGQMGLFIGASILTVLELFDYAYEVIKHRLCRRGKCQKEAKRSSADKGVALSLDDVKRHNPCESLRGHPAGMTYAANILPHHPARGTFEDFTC
# T1 sequence (O35240 1-533): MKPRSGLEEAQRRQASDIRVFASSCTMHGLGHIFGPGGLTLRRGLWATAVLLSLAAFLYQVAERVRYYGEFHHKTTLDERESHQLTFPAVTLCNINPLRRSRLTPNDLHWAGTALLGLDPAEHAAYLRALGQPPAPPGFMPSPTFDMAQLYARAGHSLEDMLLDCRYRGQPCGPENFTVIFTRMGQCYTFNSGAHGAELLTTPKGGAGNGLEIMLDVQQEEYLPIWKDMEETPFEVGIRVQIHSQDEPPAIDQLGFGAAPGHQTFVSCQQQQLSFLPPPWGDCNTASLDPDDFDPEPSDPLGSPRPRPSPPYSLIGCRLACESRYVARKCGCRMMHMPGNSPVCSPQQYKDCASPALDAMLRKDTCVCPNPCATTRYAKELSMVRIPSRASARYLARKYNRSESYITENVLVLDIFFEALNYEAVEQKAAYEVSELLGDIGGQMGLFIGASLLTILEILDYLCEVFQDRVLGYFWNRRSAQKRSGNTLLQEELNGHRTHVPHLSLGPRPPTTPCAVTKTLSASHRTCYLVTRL
# Description: Figure 4 The effect of the mutant peptide A23K on rat heteromeric ASIC1a/3 channels. […] The depicted currents were induced by a pH 5.5 stimulus following a conditioning pH of 7.4, with the peptide applied for 30 s before the pH stimulus. (B) Dose–response curve for the inhibitory effect of the mutant peptide. Each data point represents data from 6 cells. Data are presented as mean ± S.E.M.
# A small portion of the ovary was isolated from frogs under anesthesia induced by a 0.17% solution of procaine methanesulphonate (MS222) (Sigma), followed by treatment with collagenase (1 mg/mL) at room temperature for 2 h. Oocytes at stages IV and V, devoid of follicular membranes, were transferred to ND-96 medium (containing 96 mM NaCl, 5 mM HEPES, 2 mM KCl, 1.8 mM CaCl2, 1 mM MgCl2, pH 7.4). mRNA synthesis was performed from pcDNA3.1 vectors (Invitrogen, Carlsbad, CA, USA) containing the rat ASIC3 gene, as well as pCI vectors containing genes for rat ASIC1a, its mutant analogues, and ASIC1b. mRNA (2.5–10 ng) was then injected into the oocytes. For the ASIC1a/3 heteromeric channels, the mRNA encoding the ASIC1a and ASIC3 subunits were injected in a 1:5 ratio, respectively. Subsequently, the oocytes were incubated for 2–3 days at a temperature of 17–19 °C in ND96 medium supplemented with gentamicin and streptomycin (20 µg/mL each).
# Whole-cell electrophysiological recordings of ASIC channels were conducted using a two-electrode voltage-clamp setup. Microelectrodes were filled with 3 M KCl. Recordings from oocytes were carried out at a holding potential of −50 mV, with data filtered at 10 Hz and sampled at a rate of 100 Hz using an L780M ADC (LCard, Moscow, Russia). The synchronized delivery of solutions into the chamber and recording of electrophysiological results were carried out using in-house software v.2. Activation of ASIC channels occurred through rapid pH changes in the solution, achieved by replacing the working solution in the chamber with ND96-based solutions at varying pH levels. Specifically, HEPES was substituted with 10 mM MES for pH 5.5–6.5 and MOPS for pH 6.7–7.0.
# Fresh peptide solutions were meticulously prepared in ND96 buffer with a pH of 7.43 immediately before experiments, with strict control over the pH levels. Peptides were applied for 30 s at a conditioning pH of 7.43 before acid stimulation of the channel. The interval between applications was maintained at a minimum of 1.5 to 2 min.
# Electrophysiological data analysis was conducted using OriginPro 2018 software (OriginLab, Northampton, MA, USA). Dose–response relationships for Ugr9a-1, S16K, and A23K peptides were fitted using a Hill function: F1(x) = A − A/(1 + (x/IC50)^nH), where F1(x) represents the amplitude of the current at concentration x of the peptide, A is the maximum amplitude of the current, IC50 is the half-maximum inhibitory concentration of the peptide, and nH is the Hill coefficient.
smiles,measurement,setting,value
"CC[C@H](C)[C@H](N)C(=O)N[C@@H](CO)C(=O)N[C@H](C(=O)N[C@@H](CC(=O)O)C(=O)N1CCC[C@H]1C(=O)N1CCC[C@H]1C(=O)N[C@H]1CSSC[C@@H]2NC(=O)[C@H](CC(N)=O)NC(=O)CNC(=O)[C@H](CO)NC(=O)CNC(=O)[C@H](CC(=O)O)NC(=O)[C@H](CCCNC(=N)N)NC(=O)[C@H](Cc3c[nH]cn3)NC(=O)[C@H](Cc3ccc(O)cc3)NC(=O)[C@H](CSSC[C@@H](C(=O)NCC(=O)N[C@@H](C)C(=O)N[C@H](C(=O)O)C(C)C)NC(=O)CNC(=O)[C@H](Cc3ccc(O)cc3)NC(=O)[C@H](C)NC(=O)[C@H](CC(=O)O)NC(=O)[C@H](Cc3ccc(O)cc3)NC(=O)[C@H](C(C)C)NC2=O)NC(=O)[C@H](Cc2ccccc2)NC(=O)[C@H](CCCNC(=N)N)NC1=O)[C@@H](C)CC [Ugr9-1] (H-ISIDPPCRFCYHRDGSGNCVYDAYGCGAV-OH; disulfide 7-19, 10-26)",IC50,[1],10 µM
"CC[C@H](C)[C@H](N)C(=O)N[C@@H](CO)C(=O)N[C@H](C(=O)N[C@@H](CC(=O)O)C(=O)N1CCC[C@H]1C(=O)N1CCC[C@H]1C(=O)N[C@H]1CSSC[C@@H]2NC(=O)[C@H](CC(N)=O)NC(=O)CNC(=O)[C@H](CO)NC(=O)CNC(=O)[C@H](CC(=O)O)NC(=O)[C@H](CCCNC(=N)N)NC(=O)[C@H](Cc3c[nH]cn3)NC(=O)[C@H](Cc3ccc(O)cc3)NC(=O)[C@H](CSSC[C@@H](C(=O)NCC(=O)N[C@@H](C)C(=O)N[C@H](C(=O)O)C(C)C)NC(=O)CNC(=O)[C@H](Cc3ccc(O)cc3)NC(=O)[C@H](CCCCN)NC(=O)[C@H](CC(=O)O)NC(=O)[C@H](Cc3ccc(O)cc3)NC(=O)[C@H](C(C)C)NC2=O)NC(=O)[C@H](Cc2ccccc2)NC(=O)[C@H](CCCNC(=N)N)NC1=O)[C@@H](C)CC [A23K] (H-ISIDPPCRFCYHRDGSGNCVYDKYGCGAV-OH; disulfide 7-19, 10-26)",inhibitory effect on heteromeric channels compared to homomeric ASIC1a,[2]; ASIC1a/3 versus homomeric ASIC1a,approximately 1.6 -fold
same,inhibitory effect on heteromeric channels compared to homomeric ASIC3,[2]; ASIC1a/3 versus homomeric ASIC3,~2.2 -fold
same,nH,"[2]; inhibition of rat ASIC1a/3, pH 5.5 stimulus, conditioning pH 7.4, mean ± S.E.M., 6 cells",1.6 ± 0.2
same,IC50,"[2]; rat ASIC1a/3 heteromer, X. laevis oocytes (mRNA 1:5), pH 5.5 stimulus, conditioning pH 7.4, peptide 30 s, mean ± S.E.M., 6 cells",4.2 ± 0.6 µM
same,wash procedure required to restore ASIC1a/3 function,[2]; washout after peptide,extended wash procedure required to restore ASIC1a/3 function
